{"source": "patent US11123316B2", "about": "“Imaging composition and uses thereof” (The University of Melbourne, priority 2014, dated 2021)", "test": "Competition Study 2: ZrCl4(THF)2 added to mixture of DFOPhSO3H and DFOSqTaur, ESI-MS", "type": "binding", "conditions": "50° C., 7 hours, FIG. 46", "protocol": "A 3 mM stock solution of each ligand, DFOPhSO3H and DFOSqTaur, was prepared in a mixture of H2O and MeOH (concentrations were confirmed prior to dilution by UV-Vis Fe^3+ titration in H2O, 430 nm). A mixture of both solutions (25 uL each) was mixed thoroughly and heated to 50° C. A stock solution of ZrCl4(THF)2 in H2O/MeOH (3 mM) was also prepared, and 20 uL of this was added to the ligand mixture. The mixture was incubated at 50° C. for 7 hours."}
{"molecule": "CC(=O)N(O)CCCCCNC(=O)CCC(=O)N(O)CCCCCNC(=O)CCC(=O)N(O)CCCCCNc1c(NCCS(=O)(=O)O)c(=O)c1=O", "note": "[DFOSqTaur]", "values": [{"measurement": "Zr complex found in competition with DFOPhSO3H", "result": "presence of the ZrDFOSqTaur complex"}]}
